Tests used:
Assay in all cases: relative viability (nuclei count vs DMSO), 5 days (fraction); higher = more cells survive
[1] = compound: C/C(=N\NC(=S)N1CCC1)/C2=CC=CC=N2 + COc1cc2c(Oc3ccc(NC(=O)C4(C(=O)Nc5ccc(F)cc5)CC4)cc3F)ccnc2cc1OCCCN1CCOCC1 [Foretinib] (partner 0.25 µM)
Summary of the method: (§1)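 Nuclei were stained with Hoechst during a one-step fixation (final 0.05% Triton X-100, 1% formaldehyde, 1 ug/ml Hoechst) carried out 5 days after dosing, then counted on 4× images. The cells, lung cancer lines in 1536-well plates, had been dosed by pin tool the day after seeding with one drug alone or a fixed anchor-drug dose plus five library-drug doses (not always all listed) in √10 steps. Relative viability is the nuclei count in treated wells divided by that in vehicle wells, and each value is the median of duplicate plates.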

[2] = compound: C/C(=N\NC(=S)N1CCC1)/C2=CC=CC=N2 + O=C(CCCCCCC(=O)Nc1ccccc1)NO [Vorinostat] (partner 1 µM)
Summary of the method: as §1

[3] = compound: C/C(=N\NC(=S)N1CCC1)/C2=CC=CC=N2 + CS(=O)(=O)N1CCN(Cc2cc3nc(-c4cccc5[nH]ncc45)nc(N4CCOCC4)c3s2)CC1 [Pictilisib] (partner 1 µM)
Summary of the method: as §1

[4] = compound: C/C(=N\NC(=S)N1CCC1)/C2=CC=CC=N2 + NC(=O)Nc1cc(-c2cccc(F)c2)sc1C(=O)N[C@H]1CCCNC1 [AZD7762] (partner 0.2 µM)
Summary of the method: as §1

Cell Line	relative viability ([1]; first compound 0.05 µM)	relative viability ([1]; first compound 0.1581 µM)	relative viability ([1]; first compound 0.5 µM)	relative viability ([1]; first compound 5 µM)	relative viability ([2]; first compound 0.05 µM)	relative viability ([2]; first compound 0.1581 µM)	relative viability ([2]; first compound 0.5 µM)	relative viability ([2]; first compound 1.581 µM)	relative viability ([2]; first compound 5 µM)	relative viability ([3]; first compound 0.05 µM)	relative viability ([3]; first compound 0.1581 µM)	relative viability ([3]; first compound 0.5 µM)	relative viability ([3]; first compound 1.581 µM)	relative viability ([3]; first compound 5 µM)	relative viability ([1]; first compound 1.581 µM)	relative viability ([4]; first compound 0.05 µM)	relative viability ([4]; first compound 0.1581 µM)	relative viability ([4]; first compound 0.5 µM)	relative viability ([4]; first compound 1.581 µM)	relative viability ([4]; first compound 5 µM)
NCI-H2228	0.227	0.129	0.145	0.113	0.231	0.15	0.166	0.156	0.145	0.148	0.285	0.168	0.163	0.12	–	–	–	–	–	–
NCI-H2087	0.185	0.178	0.193	0.121	0.145	0.0717	0.14	0.0948	0.098	0.302	0.219	0.258	0.205	0.153	0.15	0.193	0.16	0.249	0.118	0.15
LU99A	0.276	0.189	0.181	0.189	0.147	0.152	0.137	0.131	0.161	0.12	0.106	0.0914	0.146	0.122	0.186	0.153	0.12	0.125	0.107	0.14
NCI-H1355	0.282	0.378	0.22	0.162	0.165	0.174	0.148	0.171	0.144	0.198	0.165	0.178	0.172	0.148	0.197	0.168	0.17	0.135	0.146	0.155
NCI-H520	0.153	0.162	0.159	0.184	0.177	0.156	0.163	0.182	0.159	0.176	0.186	0.18	0.16	0.208	0.17	–	–	–	–	–
NCI-H661	0.294	0.307	0.244	0.24	0.324	0.297	0.289	0.283	0.259	0.222	0.239	0.232	0.237	0.21	0.264	–	–	–	–	–
NCI-H650	0.222	0.238	0.234	0.194	0.152	0.163	0.152	0.177	0.139	0.234	0.235	0.25	0.201	0.202	0.242	0.225	0.209	0.199	0.223	0.143
NCI-H647	0.128	0.0812	0.172	0.105	0.115	0.0948	0.106	0.0935	0.102	0.0857	0.0882	0.104	0.0844	0.15	0.132	0.0396	0.0606	0.048	0.0361	0.0379
SW 1573	0.146	0.155	0.128	0.0856	0.0949	0.115	0.145	0.0758	0.0799	0.102	0.0856	0.0985	0.104	0.0817	0.142	–	–	–	–	–
COR-L23	0.147	0.132	0.14	0.0923	0.11	0.099	0.0957	0.0832	0.0963	0.134	0.0963	0.103	0.0639	0.0663	0.0938	–	–	–	–	–
SK-LU-1	0.214	0.19	0.221	0.172	0.21	0.244	0.242	0.219	0.272	0.166	0.188	0.212	0.158	0.139	0.149	–	–	–	–	–
NCI-H1650	0.185	0.225	0.175	0.215	0.159	0.171	0.143	0.143	0.178	0.17	0.214	0.186	0.165	0.193	0.205	–	–	–	–	–
UMC-11	0.249	0.212	0.223	0.185	0.168	0.14	0.146	0.134	0.139	0.19	0.174	0.189	0.144	0.133	0.183	–	–	–	–	–
SK-MES-1	0.201	0.257	0.223	0.238	0.198	0.208	0.182	0.177	0.183	0.168	0.174	0.153	0.139	0.162	0.166	–	–	–	–	–
NCI-H2009	0.143	0.183	0.186	0.184	0.0755	0.107	0.129	0.103	0.0974	0.144	0.156	0.178	0.172	0.0975	0.213	–	–	–	–	–
NCI-H2023	0.0821	0.0789	0.0763	0.077	0.082	0.0635	0.0543	0.0492	0.043	0.064	0.0997	0.084	0.0661	0.0904	0.0636	–	–	–	–	–
COR-L 105	0.33	0.312	0.382	0.268	0.345	0.346	0.345	0.304	0.291	0.318	0.346	0.325	0.279	0.254	0.233	–	–	–	–	–
NCI-H1563	0.543	0.63	0.576	0.581	–	–	–	–	–	0.593	0.519	0.614	0.561	0.584	0.529	–	–	–	–	–
EBC-1	0.0973	0.107	0.131	0.0979	–	–	–	–	–	0.164	0.205	0.187	0.116	0.14	0.0785	–	–	–	–	–
Calu-6	0.0699	0.0625	0.0749	0.0865	–	–	–	–	–	0.109	0.139	0.152	0.141	0.132	0.0997	–	–	–	–	–
HCC-44	–	–	–	–	0.894	1.02	0.51	0.471	0.411	0.341	0.142	0.125	0.149	0.217	–	0.702	0.573	0.488	0.445	0.47
